The source made the active and inactive calls. The calls are words filed in the database; no cut-off is given here.
Tests used:
[1] = target: T1, AMP-activated protein kinase (AMPK) alpha-1/beta-1/gamma-1 (Homo sapiens) (UniProt P54619+Q9Y478+Q13131); experiment: Activation of AMPK alpha1/AMPKbeta1/AMPKgamma1 (unknown origin) using SAMS peptide as substrate assessed as relative enzyme activity at 10 uM incubated for 20 mins in presence of [gamma-32P]ATP by scintillation counter analysis; type: protein-complex assay; details: filed as activator
T1 sequence (P54619 whole entry): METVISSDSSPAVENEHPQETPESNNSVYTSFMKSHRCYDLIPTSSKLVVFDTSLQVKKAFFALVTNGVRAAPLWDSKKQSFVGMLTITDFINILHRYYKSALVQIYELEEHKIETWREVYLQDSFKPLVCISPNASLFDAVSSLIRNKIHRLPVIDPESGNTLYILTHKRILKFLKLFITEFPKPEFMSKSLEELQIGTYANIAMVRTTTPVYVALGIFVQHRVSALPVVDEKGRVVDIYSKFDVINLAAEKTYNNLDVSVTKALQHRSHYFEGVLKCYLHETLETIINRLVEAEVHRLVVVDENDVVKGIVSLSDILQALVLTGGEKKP
T1 sequence (Q13131 whole entry partner): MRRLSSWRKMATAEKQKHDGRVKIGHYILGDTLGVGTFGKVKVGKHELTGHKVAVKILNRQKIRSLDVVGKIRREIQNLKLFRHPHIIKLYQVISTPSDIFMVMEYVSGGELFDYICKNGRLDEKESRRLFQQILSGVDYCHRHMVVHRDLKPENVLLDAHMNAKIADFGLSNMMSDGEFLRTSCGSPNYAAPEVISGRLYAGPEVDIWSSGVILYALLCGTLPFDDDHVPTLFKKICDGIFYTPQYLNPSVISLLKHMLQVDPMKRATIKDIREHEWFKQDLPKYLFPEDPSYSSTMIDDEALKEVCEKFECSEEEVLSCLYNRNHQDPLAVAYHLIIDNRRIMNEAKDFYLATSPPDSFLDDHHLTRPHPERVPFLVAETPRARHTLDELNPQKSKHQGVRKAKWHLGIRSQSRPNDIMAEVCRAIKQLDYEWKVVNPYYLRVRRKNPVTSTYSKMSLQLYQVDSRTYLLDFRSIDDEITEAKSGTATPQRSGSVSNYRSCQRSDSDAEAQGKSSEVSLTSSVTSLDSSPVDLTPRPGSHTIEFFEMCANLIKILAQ
T1 sequence (Q9Y478 2-270 partner limits assumed): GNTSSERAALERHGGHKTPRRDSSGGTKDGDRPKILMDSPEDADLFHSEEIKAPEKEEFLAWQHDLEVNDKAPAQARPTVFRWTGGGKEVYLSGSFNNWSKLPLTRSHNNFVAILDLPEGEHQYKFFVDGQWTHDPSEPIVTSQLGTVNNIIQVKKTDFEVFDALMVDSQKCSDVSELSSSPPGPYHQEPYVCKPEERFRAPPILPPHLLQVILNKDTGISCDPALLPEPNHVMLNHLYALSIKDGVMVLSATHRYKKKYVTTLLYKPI

[2] = target: T1, AMP-activated protein kinase (AMPK) alpha-1/beta-1/gamma-1 (Homo sapiens); experiment: Activation of AMPK alpha1/AMPKbeta1/AMPKgamma1 (unknown origin) using SAMS peptide as substrate at; type: protein-complex assay; details: filed as activator, dose < 70.3 µM, time 20.0 min
[3] = target: AMP-activated protein kinase, AMPK; experiment: Binding affinity to recombinant AMPK (unknown origin)-immobilized in CM5 sensor chip assessed as dissociation constant by SPR analysis; type: protein-complex assay, Homo sapiens
Mus musculus [4] = experiment: Lipid lowering effect on high-fat diet-fed Kunming mouse assessed as serum total cholesterol level at 50 mg/kg, po qd via gavage for 7 days consecutively (reference value: 159.3 +/- 11.5 mg/dl); type: functional; details: time 7 day
Mus musculus [5] = experiment: Lipid lowering effect on high-fat diet-fed C57BL/6J mouse assessed as decrease in serum LDL-C level at 40 mg/kg/day, po administered via gavage measured after 7 days relative to control; type: functional; design: scale not given: the % may be the effect or the level left; details: time 7 day
Syrian golden hamster [6] = experiment: Lipid lowering effect on high-fat diet-fed golden hamster assessed as decrease in serum LDL-C level at 50 mg/kg, po qd administered via gavage measured after 4 weeks relative to control; type: functional, Mesocricetus auratus; design: scale not given: the % may be the effect or the level left
Syrian golden hamster [7] = experiment: Lipid lowering effect on high-fat diet-fed golden hamster assessed as decrease in serum TC level administered orally once daily via gavage measured after 4 weeks; type: functional, organism-based; details: Mesocricetus auratus, dose 50-200 mg/kg, route po
Syrian golden hamster [8] = experiment: Lipid lowering effect on high-fat diet-fed golden hamster assessed as decrease in TC level in liver at 100 to 200 mg/kg, po qd administered via gavage measured after 4 weeks; type: functional, organism-based; details: Mesocricetus auratus, dose 100-200 mg/kg
Syrian golden hamster [9] = experiment: Effect on serum TG level in high-fat diet-fed golden hamster harboring LDLR-/- at 50 to 200 mg/kg, po qd administered via gavage measured after 8 weeks; type: functional, organism-based; details: Mesocricetus auratus, dose 50-200 mg/kg
Rhesus monkey [10] = experiment: Lipid lowering effect in Rhesus monkey assessed as LDL-C level at 35 mg/kg, NG qd treated for 35 days followed by drug washout for 14 days; type: functional, Macaca mulatta; details: time 35 day
Rhesus monkey [11] = experiment: Lipid lowering effect in Rhesus monkey assessed as decrease in serum LDL-C level at 35 mg/kg, NG qd measured after 7 days; type: functional, organism-based; details: Macaca mulatta, time 7.0 day
Homo sapiens [12] = species: Homo sapiens; experiment: Downregulation of serum LDL-C level in human at 2000 mg bid for 7 days; type: functional; details: time 7.0 day
Homo sapiens [13] = species: Homo sapiens; experiment: Downregulation of serum TC level in human at 2000 mg bid for 7 days; type: functional; details: time 7.0 day
Mus musculus [14] = experiment: Downregulation of Cidea mRNA level in liver of high-fat diet-fed C57BL/6 mouse model at 200 mg/kg, po for 4 weeks by GO analysis; type: functional, organism-based
Mus musculus [15] = experiment: Downregulation of Ccl2 mRNA level in liver of high-fat diet-fed C57BL/6 mouse model at 200 mg/kg, po for 4 weeks by GO analysis; type: functional, organism-based
Mus musculus [16] = experiment: Downregulation of Ccr2 mRNA level in liver of high-fat diet-fed C57BL/6 mouse model at 200 mg/kg, po for 4 weeks by GO analysis; type: functional, organism-based
Mus musculus [17] = experiment: Downregulation of Hspa5 mRNA level in liver of high-fat diet-fed C57BL/6 mouse model at 200 mg/kg, po for 4 weeks by GO analysis; type: functional, organism-based
Mus musculus [18] = experiment: Downregulation of Sdf2l1 mRNA level in liver of high-fat diet-fed C57BL/6 mouse model at 200 mg/kg, po for 4 weeks by GO analysis; type: functional, organism-based
Mus musculus [19] = experiment: Upregulation of Gadd45a mRNA level in liver of high-fat diet-fed C57BL/6 mouse model at 200 mg/kg, po for 4 weeks by GO analysis; type: functional, organism-based
Mus musculus [20] = experiment: Effect on Syvn1 mRNA level in liver of diet-induced obese C57BL/6 mouse model harboring AMPKalpha LS-/- at 200 mg/kg, po for 4 weeks by GO analysis; type: functional, organism-based
Mus musculus [21] = experiment: Effect on Hspa5 mRNA level in liver of diet-induced obese C57BL/6 mouse model harboring AMPKalpha LS-/- at 200 mg/kg, po for 4 weeks by GO analysis; type: functional, organism-based
Mus musculus [22] = experiment: Effect on Ccr2 mRNA level in liver of diet-induced obese C57BL/6 mouse model harboring AMPKalpha LS-/- at 200 mg/kg, po for 4 weeks by GO analysis; type: functional, organism-based
Mus musculus [23] = experiment: Effect on Ccl2 mRNA level in liver of diet-induced obese C57BL/6 mouse model harboring AMPKalpha LS-/- at 200 mg/kg, po for 4 weeks by GO analysis; type: functional, organism-based
Mus musculus [24] = experiment: Effect on Lepr mRNA level in liver of diet-induced obese C57BL/6 mouse model harboring AMPKalpha LS-/- at 200 mg/kg, po for 4 weeks by GO analysis; type: functional, organism-based
Mus musculus [25] = experiment: Effect on Pcsk9 mRNA level in liver of diet-induced obese C57BL/6 mouse model harboring AMPKalpha LS-/- at 200 mg/kg, po for 4 weeks by GO analysis; type: functional, organism-based
Mus musculus [26] = experiment: Effect on Ctgf mRNA level in liver of diet-induced obese C57BL/6 mouse model harboring AMPKalpha LS-/- at 200 mg/kg, po for 4 weeks by GO analysis; type: functional, organism-based
Mus musculus [27] = experiment: Effect on Gadd45a mRNA level in liver of diet-induced obese C57BL/6 mouse model harboring AMPKalpha LS-/- at 200 mg/kg, po for 4 weeks by GO analysis; type: functional, organism-based
[28] = Cmax in female Rhesus monkey at 70 mg/kg, po or 7 mg/kg, iv measured for 36 hrs by LC-tandem MS analysis; type: ADME, organism-based, Macaca mulatta; details: in vivo
[29] = Half life in female Rhesus monkey at 70 mg/kg, po or 7 mg/kg, iv measured for 36 hrs by LC-tandem MS analysis; type: ADME, organism-based, Macaca mulatta; details: in vivo
[30] = Cmax in male Rhesus monkey at 70 mg/kg, po or 7 mg/kg, iv measured for 36 hrs by LC-tandem MS analysis; type: ADME, organism-based, Macaca mulatta; details: in vivo
[31] = Tmax in male Rhesus monkey at 70 mg/kg, po or 7 mg/kg, iv measured for 36 hrs by LC-tandem MS analysis; type: ADME, organism-based, Macaca mulatta; details: in vivo
[32] = Half life in male Rhesus monkey at 70 mg/kg, po or 7 mg/kg, iv measured for 36 hrs by LC-tandem MS analysis; type: ADME, organism-based, Macaca mulatta; details: in vivo
[33] = Oral bioavailability in male Rhesus monkey at 70 mg/kg measured for 36 hrs by LC-tandem MS analysis; type: ADME, organism-based, Macaca mulatta; details: in vivo
[34] = Stability in human Caco-2 cells assessed as compound remaining at 10 ug/ml measured after 1 hr by LC-MS/MS analysis; type: ADME, cell-based; details: at 10 µg/mL, read-out: Stability
[35] = Stability in human plasma assessed as compound remaining at 1 to 5 uM measured after 30 mins by LC-MS/MS analysis; type: ADME, cell-free; details: dose 1-5 µM, read-out: Stability
[36] = Acute toxicity in golden hamster administered orally measured for 14 days; design: species or system Mesocricetus auratus; details: in vivo, route po, time 14 day

CC(=O)OC[C@H]1O[C@@H](n2cnc3c(Nc4cccc(O)c4)ncnc32)[C@H](OC(C)=O)[C@@H]1OC(C)=O
Activity [1]: 2.31
Activity [2]: Active
Kd [3]: 17.9 µM
Activity (Mus musculus [4]): 151.7 mg/dL
Activity (Mus musculus [5]): 32.6%
Activity (Syrian golden hamster [6]): 10.5%
Activity (Syrian golden hamster [7]): Dose-Dependent Effect
Activity (Syrian golden hamster [8]): Active
Activity (Syrian golden hamster [9]): inactive
Activity (Rhesus monkey [10]): 1.25 mmol/L
Activity (Rhesus monkey [11]): Active
Activity (Homo sapiens [12]): Active
Activity (Homo sapiens [13]): Active
Activity (Mus musculus [14]): Active
Activity (Mus musculus [15]): Active
Activity (Mus musculus [16]): Active
Activity (Mus musculus [17]): Active
Activity (Mus musculus [18]): Active
Activity (Mus musculus [19]): Active
Activity (Mus musculus [20]): inactive
Activity (Mus musculus [21]): inactive
Activity (Mus musculus [22]): inactive
Activity (Mus musculus [23]): inactive
Activity (Mus musculus [24]): inactive
Activity (Mus musculus [25]): inactive
Activity (Mus musculus [26]): inactive
Activity (Mus musculus [27]): inactive
Cmax [28]: 25.9 ng/mL
half-life [29]: 249 min
Cmax [30]: 20.4 ng/mL
Tmax [31]: 1.5 h
half-life [32]: 324 min
bioavailability [33]: 3.04%
remaining at 1 h, 10 ug/ml [34]: 77%
remaining at 0.5 h, up to 5 µM [35]: ~70%
LD50 at 336 h [36]: > 20000 mg/kg

— ChEMBL document CHEMBL5506050, “Discovery of Oral AMP-Activated Protein Kinase Activators for Treating Hyperlipidemia” (J Med Chem, 2024)
